Data on one compound can be found in ChEMBL document CHEMBL1275484, “Rifampin and rifaximin resistance in clinical isolates of Clostridium difficile” (Antimicrob Agents Chemother, 2008).

The subject of one series is Clostridioides difficile. The series is described as follows: Antimicrobial activity against Clostridium difficile clinical isolate obtained from patient after completion of two courses of drug treatment. It is filed as functional.
Series [1] is described as follows: Drug level in diarrhea patient feces at 400 mg, po every 12 hrs for 3 days. It is filed as ADME, organism-based. Conditions: human, read-out: Drug uptake.

For `CO[C@H]1/C=C/O[C@@]2(C)Oc3c(C)c(O)c4c(O)c(c5c(nc6cc(C)ccn65)c4c3C2=O)NC(=O)/C(C)=C\C=C\[C@H](C)[C@H](O)[C@@H](C)[C@@H](O)[C@@H](C)[C@H](OC(C)=O)[C@@H]1C` [RIFAXIMIN], the MIC in the series with Clostridioides difficile was over 256 µg/mL. In addition, the concentration at 3 days in series [1] turned out to be 8e+06 ng/g.
